According to patent US7718674B2, “Methods of relieving neuropathic pain with the S-isomer of 2-{2[N-(2-indanyl)-N-phenylamino]ethyl}piperidine” (Bridge Pharma, Inc., priority 2004, dated 2010):
“Also recorded” adds a separate entry of the source.

How the values were obtained:
[1] = test system: skin on the back of male or female guinea pigs; conditions: from U.S. Pat. No. 6,413,987; cited from earlier work
[2] = from U.S. Pat. No. 6,413,987; cited from earlier work
[3] = test system: skin on the back of male or female guinea pigs; experiment: Dermal anesthetic activity, pin-prick method after dermal application; assay type: in vivo, guinea pig; conditions: for anesthetic score (dermal anesthetic effect, FIG. 1): after 30 min application, score = average number of six probings not producing a skin twitch, 10% solution of base in DMSO/water
Experimental: Approximately 18-24 hours before each experiment, the skin on the back of male or female guinea pigs was shaved and depilated with a commercially available hair remover. The anesthetic action of each agent following dermal application was determined using a “pin-prick” method as described by Aberg (Acta Pharmacol Toxicol, 1972, 31: 273-286). Before and at various intervals after treatment, the area of the skin was tested for the presence or absence of a skin twitch in response to six standardized dermal probings with a pointed metal “algesimeter” at a predetermined maximum load of 10 grams. The average number of probings not producing a skin twitch response was designated as the “anesthetic score”. In this test system no response to six stimuli represents a “maximal anesthetic activity”. In the present calculations, the dermal anesthetic activity was calculated from the time of removal of the test article formulation from the skin until skin twitch responses to all but one pinprick were identified. In experiments on the dermal anesthetic activity, a single area of skin 1 inch square was marked off on the middle of the back of each animal. This area was covered by a 1 inch square, 16 layer thick gauze pad onto which was deposited 0.45 ml of a 10% solution of the test agent dissolved in a mixture of water and DMSO. The gauze pad was covered with a 1.5 inch square sheet of Saran Wrap™ which was attached to the surrounding skin with tape. The entire area was then covered by wrapping an elastic bandage around the trunk of the animal. After a predetermined duration of treatment, the coverings were removed and the skin assessed for the presence of anesthesia as described above. Dermal anesthesia tests were performed at ten-minute intervals to measure onset time and duration of dermal anesthetic activity; comparisons were made with reference compounds and vehicle. All test compounds were in the base form and dissolved in DMSO/water when tested for dermal anesthesia.

Dermal / tissue toxicity = conditions: in vivo
Analgesic activity = experiment: Analgesic activity; design: species or system rats; conditions: rat, in vivo
Experimental: Peripheral mononeuropathy is induced in rats by loose ligation of the sciatic nerve in anesthetized rats. Fourteen days later, the nociceptive threshold is evaluated after animal dosing with drug or vehicle, using graded paw pressure testing to assess hyperalgesia.
Diabetes is induced in rats by intraperitoneal injection of streptozotocin. Three weeks later, the nociceptive threshold is measured after animal dosing using the paw pressure to assess hyperalgesia.

Structure (SMILES)	local / dermal anesthetic activity [1]	tissue toxicity [2]	anesthetic score (dermal anesthetic effect, FIG. 1) [3]	onset of dermal anesthetic activity ([3]; comparison of the enantiomers of LAC-34)	duration of action (duration of anesthesia) ([3]; comparison with racemate and other enantiomer, same concentration)	dermal toxicity (Dermal / tissue toxicity)	analgesic activity (Analgesic activity)
c1ccc(N(CCC2CCCCN2)C2Cc3ccccc3C2)cc1 (racemic) [RS-LAC-34, 2-{2-[N-(2-indanyl)-N-phenylamino]ethyl}piperidine]	active local anesthetic compound	little, if any, tissue toxicity	–	–	–	–	–
c1ccc(N(CC[C@H]2CCCCN2)C2Cc3ccccc3C2)cc1 [R-LAC-34]	–	–	3.5	significantly shorter; also recorded: shorter onset of action	shorter duration of action	–	–
c1ccc(N(CC[C@@H]2CCCCN2)C2Cc3ccccc3C2)cc1 [S-LAC-34, S-2-{2-[N-(2-indanyl)-N-phenylamino]ethyl}piperidine]	–	–	2.6	–	–	low dermal toxicity	expresses analgesic activity
